Where two headings read alike, the source gives them in different places.
What was measured:
[1] = molecular target: T1, indoleamine 2,3-dioxygenase (IDO1) (Homo sapiens, UniProt P14902); experiment: HeLa IDOi assay (kynurenine by mass spectrometry); type: cell-based; design: human epithelial HeLa cells (CCL-2; host or cells: HeLa cells stimulated with human IFN-γ; details: IFN-γ stimulated HeLa cells, 2 days, kynurenine detected by mass spectrometry; read-out: HeLa pIC50 (converted)
Experimental: (§1) Brief descriptions of the cellular assays are provided following the table.
(§2) Compounds of the present invention were tested via high-throughput cellular assays utilizing detection of kynurenine via mass spectrometry and cytotoxicity as end-points. For the mass spectrometry and cytotoxicity assays, human epithelial HeLa cells (CCL-2; ATCC®, Manassas, Va.) were stimulated with human interferon-γ (IFN-γ) (Sigma-Aldrich Corporation, St. Louis, Mo.) to induce the expression of indoleamine 2,3-dioxygenase (IDO1). Compounds with IDO1 inhibitory properties decreased the amount of kynurenine produced by the cells via the tryptophan catabolic pathway. Cellular toxicity due to the effect of compound treatment was measured using CellTiter-Glo® reagent (CTG) (Promega Corporation, Madison, Wis.), which is based on luminescent detection of ATP, an indicator of metabolically active cells.
(§3) In preparation for the assays, test compounds were serially diluted 3-fold in DMSO from a typical top concentration of 5 mM and plated at 0.5 μL in 384-well, polystyrene, clear bottom, tissue culture treated plates with lids (Greiner Bio-One, Kremsmünster, Austria) to generate 11-point dose response curves. Low control wells (0% kynurenine or 100% cytotoxicity) contained either 0.5 μL of DMSO in the presence of unstimulated (−IFN-γ) HeLa cells for the mass spectrometry assay or 0.5 μL of DMSO in the absence of cells for the cytotoxicity assay, and high control wells (100% kynurenine or 0% cytotoxicity) contained 0.5 μL of DMSO in the presence of stimulated (+IFN-γ) HeLa cells for both the mass spectrometry and cytotoxicity assays.
Frozen stocks of HeLa cells were washed and recovered in DMEM high glucose medium with HEPES (Thermo Fisher Scientific, Inc., Waltham, Mass.) supplemented with 10% v/v certified fetal bovine serum (FBS) (Thermo Fisher Scientific, Inc., Waltham, Mass.), and 1× penicillin-streptomycin antibiotic solution (Thermo Fisher Scientific, Inc., Waltham, Mass.). The cells were diluted to 100,000 cells/mL in the supplemented DMEM medium. 50 μL of either the cell suspension, for the mass spectrometry assay, or medium alone, for the cytotoxicity assay, were added to the low control wells, on the previously prepared 384-well compound plates, resulting in 5,000 cells/well or 0 cells/well respectively. IFN-γ was added to the remaining cell suspension at a final concentration of 10 nM, and 50 μL of the stimulated cells were added to all remaining wells on the 384-well compound plates. The plates, with lids, were then placed in a 37° C., 5% CO2 humidified incubator for 2 days.
(§4) Following incubation, the 384-well plates were removed from the incubator and allowed to equilibrate to room temperature for 30 minutes. For the cytotoxicity assay, CellTiter-Glo® was prepared according to the manufacturer's instructions, and 10 μL were added to each plate well. After a twenty minute incubation at room temperature, luminescence was read on an EnVision® Multilabel Reader (PerkinElmer Inc., Waltham, Mass.). For the mass spectrometry assay, 10 μL of supernatant from each well of the compound-treated plates were added to 40 μL of acetonitrile, containing 10 μM of an internal standard for normalization, in 384-well, polypropylene, V-bottom plates (Greiner Bio-One, Kremsmünster, Austria) to extract the organic analytes. Following centrifugation at 2000 rpm for 10 minutes, 10 μL from each well of the acetonitrile extraction plates were added to 90 μL of sterile, distilled H2O in 384-well, polypropylene, V-bottom plates for analysis of kynurenine and the internal standard on the RapidFire 300 (Agilent Technologies, Santa Clara, Calif.) and 4000 QTRAP MS (SCIEX, Framingham, Mass.). MS data were integrated using Agilent Technologies' RapidFire Integrator software, and data were normalized for analysis as a ratio of kynurenine to the internal standard. […]

[2] = molecular target: T1, indoleamine 2,3-dioxygenase (IDO1); experiment: PBMC IDOi assay (kynurenine by mass spectrometry); type: cell-based; details: IFN-γ and LPS stimulated human PBMC, 2 days, kynurenine detected by mass spectrometry; read-out: PBMC pIC50 (converted)
Experimental: as §1
as §2, with “peripheral blood mononuclear” for “epithelial HeLa”, “(PBMC) (PB003F; AllCells®, Alameda, Calif.)” for “(CCL-2; ATCC®, Manassas, Va.)”, “Mo.) and lipopolysaccharide from Salmonella minnesota (LPS) (Invivogen, San Diego, Calif.)” for “Mo.)”
as §3, with “(−IFN-γ/−LPS) PBMCs” for “(−IFN-γ) HeLa cells”, “(+IFN-γ/+LPS) PBMCs” for “(+IFN-γ) HeLa cells”
Frozen stocks of PBMCs were washed and recovered in RPMI 1640 medium (Thermo Fisher Scientific, Inc., Waltham, Mass.) supplemented with 10% v/v heat-inactivated fetal bovine serum (FBS) (Thermo Fisher Scientific, Inc., Waltham, Mass.), and 1× penicillin-streptomycin antibiotic solution (Thermo Fisher Scientific, Inc., Waltham, Mass.). The cells were diluted to 1,000,000 cells/mL in the supplemented RPMI 1640 medium. 50 μL of either the cell suspension, for the mass spectrometry assay, or medium alone, for the cytotoxicity assay, were added to the low control wells, on the previously prepared 384-well compound plates, resulting in 50,000 cells/well or 0 cells/well respectively. IFN-γ and LPS were added to the remaining cell suspension at final concentrations of 100 ng/ml and 50 ng/ml respectively, and 50 μL of the stimulated cells were added to all remaining wells on the 384-well compound plates. The plates, with lids, were then placed in a 37° C., 5% CO2 humidified incubator for 2 days.
as §4, with “and 40” for “and 10”, “Mass.).” for “Mass.). MS data were integrated using Agilent Technologies' RapidFire Integrator software, and data were normalized for analysis as a ratio of kynurenine to the internal standard.”

[3] = tested on: conversion of T cells into CD4+FoxP3+ Tregs; details: co-culture of DCs and naïve CD4+CD25− T cells; cited from earlier work
[4] = tested on: PAN02 pancreatic cells; details: orally dosed, cited from earlier work

T1 sequence (P14902 whole entry): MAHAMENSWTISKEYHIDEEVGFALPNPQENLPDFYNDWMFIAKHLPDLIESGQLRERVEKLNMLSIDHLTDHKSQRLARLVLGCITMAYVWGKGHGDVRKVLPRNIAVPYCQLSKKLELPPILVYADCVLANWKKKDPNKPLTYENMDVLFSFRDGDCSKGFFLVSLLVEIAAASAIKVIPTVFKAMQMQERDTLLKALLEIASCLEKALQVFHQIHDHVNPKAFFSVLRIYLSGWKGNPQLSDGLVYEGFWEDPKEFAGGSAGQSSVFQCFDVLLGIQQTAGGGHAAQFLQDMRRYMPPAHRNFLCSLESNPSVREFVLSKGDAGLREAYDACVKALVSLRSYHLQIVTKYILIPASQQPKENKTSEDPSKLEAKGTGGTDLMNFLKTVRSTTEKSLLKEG

Row | SMILES | IC50 [1] [nM] | IC50 [2] [nM] | conversion of T cells into CD4+FoxP3+ Tregs [3] | inhibition of tumor growth ([4]; PAN02 syngeneic model, immunocompetent mice) | inhibition of tumor growth ([4]; same tumor implanted in immune-deficient mice)
1 | Cc1cc(C)c(CC(=O)Nc2cc(-c3ccccc3-c3nn[nH]n3)ccc2SC(C)(C)C)c(C)c1 [Example 39, N-(4-(tert-butylthio)-2′-(2H-tetrazol-5-yl)-[1,1′-biphenyl]-3-yl)-2-mesitylacetamide] | 2.51 | 1.58 | – | – | –
2 | CC(C)(C)Sc1ccc(-c2ccccc2-c2nn[nH]n2)cc1NC(=O)Cc1ccc(Br)cc1 [Example 40, 2-(4-Bromophenyl)-N-(4-(tert-butylthio)-2′-(2H-tetrazol-5-yl)-[1,1′-biphenyl]-3-yl)acetamide] | 31.6 | 20 | – | – | –
3 | CC(C)(C)Sc1ccc(-c2ccccc2-c2nn[nH]n2)cc1Nc1nc(C(F)(F)F)ns1 [Example 43, N-(4-(tert-butylthio)-2′-(2H-tetrazol-5-yl)-[1,1′-biphenyl]-3-yl)-3-(trifluoromethyl)-1,2,4-thiadiazol-5-amine] | 50.1 | 12.6 | – | – | –
4 | Cc1ccc(CC(=O)Nc2cc(-c3ccccc3C#N)ccc2SC(C)(C)C)cc1 [Example 46, N-(4-(tert-butylthio)-2′-cyano-[1,1′-biphenyl]-3-yl)-2-(p-tolyl)acetamide] | 6310 | 5010 | – | – | –
5 | Cc1ccc(CC(=O)Nc2cc(-c3ccccc3C(N)=O)ccc2SC(C)(C)C)cc1 [Example 47, 4′-(tert-Butylthio)-3′-(2-(p-tolyl)acetamido)-[1,1′-biphenyl]-2-carboxamide] | 501 | 501 | – | – | –
6 | Cc1ccc(CC(=O)Nc2cc(-c3ccccc3-c3nnn(COP(=O)(O)O)n3)ccc2SC(C)(C)C)cc1 [Example 51, (5-(4′-(tert-Butylthio)-3′-(2-(p-tolyl)acetamido)-[1,1′-biphenyl]-2-yl)-2H-tetrazol-2-yl)methyl Dihydrogen Phosphate] | 15.8 | 63.1 | – | – | –
7 | Cc1ccc(CC(=O)Nc2cc(-c3ccccc3-c3nnnn3COP(=O)(O)O)ccc2SC(C)(C)C)cc1 [Example 52, (5-(4′-(tert-Butylthio)-3′-(2-(p-tolyl)acetamido)-[1,1′-biphenyl]-2-yl)-1H-tetrazol-1-yl)methyl Dihydrogen] | 25.1 | 158 | – | – | –
8 | Cc1ccc(CC(=O)Nc2cc(-c3ccccc3-c3nnn(COC(=O)C(C)(C)C)n3)ccc2SC(C)(C)C)cc1 [Example 55, (5-(4′-(tert-Butylthio)-3′-(2-(p-tolyl)acetamido)-[1,1′-biphenyl]-2-yl)-2H-tetrazol-2-yl)methyl pivalate] | 31.6 | 50.1 | – | – | –
9 | Cc1ccc(CC(=O)Nc2cc(-c3ccccc3-c3nnnn3COC(=O)C(C)(C)C)ccc2SC(C)(C)C)cc1 [Example 56, (5-(4′-(tert-butylthio)-3′-(2-(p-tolyl)acetamido)-[1,1′-biphenyl]-2-yl)-1H-tetrazol-1-yl)methyl Pivalate] | 31.6 | 20 | – | – | –
10 | Cc1ccc(CC(=O)Nc2cc(-c3ccccc3-c3nnn[nH]3)cnc2SC(C)(C)C)cc1 [Example 64, N-(5-(2-(1H-tetrazol-5-yl)phenyl)-2-(tert-butylthio)pyridin-3-yl)-2-(p-tolyl)acetamide] | 63.1 | 50.1 | – | – | –
11 | CC(C)(C)Sc1ncc(-c2ccccc2-c2nnn[nH]2)cc1NC(=O)Cc1ccc(C(F)(F)F)cc1 [Example 65, N-(5-(2-(1H-tetrazol-5-yl)phenyl)-2-(tert-butylthio)pyridin-3-yl)-2-(4-(trifluoromethyl)phenyl)acetamide] | 39.8 | 25.1 | – | – | –
12 | Cc1ccc(CC(=O)Nc2cc(-c3ccccc3-c3nnn[nH]3)cnc2SC(C)(C)C)c(C)c1 [Example 66, N-(5-(2-(1H-tetrazol-5-yl)phenyl)-2-(tert-butylthio)pyridin-3-yl)-2-(2,4-dimethylphenyl)acetamide] | 10 | 7.94 | – | – | –
13 | CC(C)(C)Sc1ncc(-c2ccccc2-c2nnn[nH]2)cc1NC(=O)Cc1ccccc1C(F)(F)F [Example 67, N-(5-(2-(1H-tetrazol-5-yl)phenyl)-2-(tert-butylthio)pyridin-3-yl)-2-(2-(trifluoromethyl)phenyl)acetamide] | 100 | 12.6 | – | – | –
14 | NS(=O)(=O)NCCNc1nonc1C(=NO)Nc1ccc(F)c(Br)c1 [INCB204360] | – | – | blocked the conversion | significant dose-dependent inhibition of tumor growth | without effect

Reference: patent publication US10538495B2, “Modulators of indoleamine 2,3-dioxygenase” (GLAXOSMITHKLINE INTELLECTUAL PROPERTY DEVELOPMENT LIMITED, priority 2016, dated 2020)
